Measurements as given in patent US20140294978A1, “CATIONIC LIPID” (Kyowa Hakko Kirin Co., Ltd., priority 2013, published 2014).

What was measured:
[1] = Average particle diameter of the lipid nanoparticles in each preparation (Zetasizer Nano ZS); type: physicochemical
Source text: Each sample was weighed so that the ratio of each of Compounds I-1 to I-5/1,2-dimyristoyl-sn-glycero-3-phosphoethanolamine-N-(methoxy(polyethylene glycol)-2000) sodium salt (PEG-DMPE Na, N-(carbonylmethoxypolyethylene glycol 2000)-1,2-dimyristoyl-sn-glycero-3-phosphoethanolamine sodium salt, manufactured by NOF Corporation)/disteazoylphosphatidyl choline (DSPC, 1,2-distearoyl-sn-glycero-3-phosphocholine, manufactured by NOF Corporation)/choiestercl (manufactured by NOF Corporation)=8.947/1.078/5.707/13.698 mmol/L, and dissolved in 90 vol % ethanol, whereby a solution containing the constituent components of a lipid membrane was prepared. Separately, apo-b siRNA in distilled water (24 mg/mL) was diluted with a Tris-EDTA buffer solution (200 mM Tris-HCl, 20 mM EDTA, manufactured by Invitrogen Co., Ltd.) and a 20 mM citric acid buffer solution (pH 5.0), whereby a 1.5 mg/mL apo-b siRNA aqueous solution (2 mM Tris-EDTA buffer solution, 20 mM citric acid buffer solution, pH 5.0) was prepared.
The obtained lipid solution was heated to 37° C., and a 500 μL portion was transferred to a container for preparing a preparation. The obtained apo-b siRNA aqueous solution (500 μL) was then added thereto while stirring. Then, a 20 mM citric acid buffer solution (containing 300 mM NaCl, pH 6.0, 1000 μL) was added to the obtained lipid nucleic acid mixed suspension (1000 μL) while stirring, and further, DPBS (manufactured by Invitrogen Co., Ltd., 3310 μL) was added dropwise thereto, whereby a crude preparation was obtained. The obtained crude preparation was concentrated by using Amicon Ultra (manufactured by Millipore Co., Ltd.), and further, the solvent was replaced with DPBS, and the resulting mixture was filtered through a 0.2-μm filter (manufactured by Toyo Roshi Kaisha, Ltd.) in a laminar flow cabinet. Further, the siRNA concentration in the obtained preparation was measured, and the preparation was diluted with DPBS so that the siRNA concentration was 0.3 mg/mL, whereby preparations (compositions containing any of Compounds I-1 to I-5, and the nucleic acid) were obtained.
The average particle diameter of the lipid nanoparticles in each preparation was measured using a particle diameter measurement device (Zetasizer Nano ZS, manufactured by Malvern).
Preparations were obtained in the same manner as in Example 9 except that Compounds I-1 to I-5 were changed to DLin-KC2-DMA synthesized by a modified method of the method described in WO2010/042877 and the compounds obtained in Reference Examples 5 to 7 (Compounds VII-1 to VII-3).
The average particle diameter of the lipid nanoparticles in each preparation was measured using a particle diameter measurement device.
Each sample was weighed so that the ratio of Compound I-6/PEG-DMPE Na (manufactured by NOF Corporation)/DSPC (manufactured by NOF Corporation)/cholesterol (manufactured by NOF Corporation)=3.532/0.270/1.156/2.401 mmol/L, and dissolved in 100 volt ethanol, whereby a solution containing the constituent components of a lipid membrane was prepared.
The obtained lipid solution was heated to 37° C., and an 800 μL portion was transferred to a container for preparing a preparation. The obtained f7 siRNA aqueous solution (800 μL) was then added thereto while stirring. Then, a 20 mM citric acid buffer solution (containing 300 mM NaCl, pH 6.0, 1600 μL) was added to the obtained lipid nucleic acid mixed suspension (1600 μL) while stirring, and further, DPBS (manufactured by Invitrogen Co., Ltd., […]) was added dropwise thereto, whereby a crude preparation was obtained. The obtained crude preparation was concentrated by using Amicon Ultra (manufactured by Millipore Co., Ltd.), and further, the solvent was replaced with DPBS, and the resulting mixture was filtered through a 0.45-μm filter (manufactured by Toyo Roshi Kaisha, Ltd.) in a laminar flow cabinet. […]

[2] = tested on: apo-b gene mRNA in human liver cancer-derived cell line HepG2; experiment: Expression ratio of apo-b mRNA after introduction of preparations into HepG2 cells; type: cell-based; conditions: preparation with apo-b siRNA, nucleic acid 1 to 30 nM, 24 hours, FIG. 1
Source text: Each of the preparations obtained in Example 9 (the compositions containing any of Compounds I-1, and I-3 to I-5, and the nucleic acid) and the preparations obtained in Comparative Example 1 (the compositions containing any of DLin-KC2-DMA and Compounds VII-1 to VII-3, and the nucleic acid) was introduced into cells of a human liver cancer-derived cell line HepG2 (HB-8065) by the following method.
Each preparation diluted with Opti-MEM (GIBCO Co., Ltd., 31985) so that the final concentration of the nucleic acid was 1 to 30 nM was dispensed in a 96-well culture plate at 20 μL/well. […]
By using the obtained cDNA as a template and also using a universal probe library (Roche Applied Science, Inc., 04683633001) as the probe and ABI7900HT Fast (manufactured by ABI, Inc.), a PCR reaction was performed according to the method described in the protocol attached thereto, so that the apo-b gene and D-glyceraldehyde-3-phosphate dehydrogenase (hereinafter, represented by “gapdh”) gene, which is a constitutively expressed gene, were subjected to the PCR reaction. Then, the amount of the amplified mRNA was measured for each gene, and aquasi-quantitative value of the apo-b mRNA was calculated using the amount of the amplified gapdh mRNA as the internal control. […]

[3] = tested on: Factor VII; experiment: In vivo drug efficacy: Factor VII protein level in plasma of mice after intravenous f7 siRNA preparations; conditions: Balb/c mice, 0.3 or 0.1 mg/kg in terms of siRNA, 48 hours after administration, f7 siRNA preparation, FIG. 4
Procedure: Each of the preparations obtained in Examples 10 and 11 (the compositions containing Compound I-6, I-1, I-7, or I-8, and the nucleic acid) was tested for evaluating the in vivo drug efficacy according to the following method. Incidentally, each preparation was used after it was diluted in accordance with the test.
After mice (Balb/c, obtained from CLEA Japan, Inc.) were housed and acclimated, each preparation was intravenously administered to mice at a dose of 0.3 or 0.1 mg/kg in terms of siRNA concentration. At 48 hours after the administration, blood was collected, and the collected blood was centrifuged at 8000 rpm for 8 minutes at 4° C. using a high speed refrigerated microcentrifuge (TOMY MX305, manufactured by Tomy Seiko Co., Ltd.). The Factor VII protein level in the thus obtained plasma sample was determined as follows. A BIOPHEN VII Kit (Cat. No. A221304, manufactured by ANIARA Company) was used, and according to the method described in the protocol attached to the kit, the absorbance was measured in a standard solution and in the plasma sample using ARVO (405 nm). On the basis of the obtained absorbance, a calibration curve was prepared, and the Factor VII protein level in the plasma was calculated. Incidentally, the number of mice in each group was set to 3.

[4] = preparations of Example 9: cationic lipid/PEG-DMPE Na/DSPC/cholesterol with apo-b siRNA
[5] = preparations of Comparative Example 1, made as in Example 9, with apo-b siRNA
[6] = preparations of Examples 10 and 11: cationic lipid/PEG-DMPE Na/DSPC/cholesterol with f7 siRNA

| SMILES | Particle diameter of Preparation obtained [1, 4] | Particle diameter of Preparation obtained [1, 5] | Particle diameter of Preparation obtained [1, 6] | Factor VII protein level in the plasma (expression of the Factor VII gene) [3] | also measured |
| --- | --- | --- | --- | --- | --- |
| CCCCC/C=C\C/C=C\CCCCCCCCN(CCCCCCCC/C=C\C/C=C\CCCCC)C(=O)OCCN(C)C [Compound I-5, 2-(Dimethylamino)ethyl di((9Z,12Z)-octadeca-9,2-dienyl)carbamate] | 137.0 nm |  |  |  |  |
| CCCCC/C=C\C/C=C\CCCCCCCCCCN(CCCCCCCCCC/C=C\C/C=C\CCCCC)C(=O)OCCCN(C)C [Compound I-4, 3-(Dimethylamino)propyl di((11Z,14Z)-icosa-11,14-dienyl)carbamate] | 159.0 nm |  |  |  |  |
| CCCCC/C=C\C/C=C\CCCCCCCCC1(CCCCCCCC/C=C\C/C=C\CCCCC)OCC(CCN(C)C)O1 (stereo not drawn) [DLin-KC2-DMA, 2,2-dilinoleyl-4-(2-dimethylaminoethyl)-[1,3]-dioxolane, reference compound] |  | 159.8 nm |  |  |  |
| CCCCCC/C=C\CCCCCCCCN(CCCCCCCC/C=C\CCCCCC)C(=O)OCCCN(C)C [Compound I-3, 3-(Dimethylamino)propyl di((Z)-hexadec-9-enyl)carbamate] | 150.0 nm |  |  |  |  |
| CCCCCCCC/C=C\CCCCCCCCN(CCCCCCCC/C=C\CCCCCCCC)C(=O)OCCCN(C)C [Compound I-2, 3-(Dimethylamino)propyl di((Z)-octadec-9-enyl)carbamate] | 135.8 nm |  |  |  |  |
| CCCCC/C=C\C/C=C\CCCCCCCCN(CCCCCCCC/C=C\C/C=C\CCCCC)C(=O)OCCCN(C)C [Compound I-1, 3-(Dimethylamino)propyl di((9Z,12Z)-octadeca-9,12-dienyl)carbamate] | 151.8 nm |  | 118.9 nm | strongly suppressed |  |
| CCCCC/C=C\C/C=C\CCCCCCCCN(CCCCCCCC/C=C\C/C=C\CCCCC)C(=O)OCCCN1CCCC1 [Compound I-8, 3-(Pyrrolidin-1-yl)propyl di((9Z,12Z)-octadeca-9,2-dienyl)carbamate] |  |  | 121.6 nm | strongly suppressed |  |
| CCCCC/C=C\C/C=C\CCCCCCCCN(CCCCCCCC/C=C\C/C=C\CCCCC)C(=O)OCCCN1CCCCC1 [Compound I-7, 3-(Piperidin-1-yl)propyl di((9Z,12Z)-octadeca-9,12-dienyl)carbamate] |  |  | 131.8 nm | strongly suppressed |  |
| CCCCC/C=C\C/C=C\CCCCCCCCN(CCCCCCCC/C=C\C/C=C\CCCCC)C(=O)OCCC1CCCN1C (stereo not drawn) [Compound I-6, 2-(1-Methylpyrrolidin-2-yl)ethyl di((9Z,12Z)-octadeca-9,12-dienyl)carbamate] |  |  | 121.1 nm | strongly suppressed |  |

Second part, led by results:

| Particle diameter of Preparation obtained [1, 4] | Particle diameter of Preparation obtained [1, 5] | Particle diameter of Preparation obtained [1, 6] | SMILES | Factor VII protein level in the plasma (expression of the Factor VII gene) [3] | also measured |
| --- | --- | --- | --- | --- | --- |
|  | 176.6 nm |  | CCCCC/C=C\C/C=C\CCCCCCCCN(CCCCCCCC/C=C\C/C=C\CCCCC)C(=O)CCCCN [Compound VII-1, 5-Amino-N,N-di((9Z,12Z)-octadeca-9,12-dienyl)pentanamide, reference compound] |  |  |
|  | 177.7 nm |  | CCCCC/C=C\C/C=C\CCCCCCCCN(CCCCCCCC/C=C\C/C=C\CCCCC)C(=O)OCCCN [Compound VII-3, 3-Aminopropyl di((9Z,12Z)-octadeca-9,12-dienyl)carbamate, reference compound] |  |  |
|  | 160.1 nm |  | CCCCC/C=C\C/C=C\CCCCCCCCN(CCCCCCCC/C=C\C/C=C\CCCCC)C(=O)CCCCN(C)C [Compound VII-2, 5-(Dimethylamino)-N,N-di((9Z,12Z)-octadeca-9,12-dienyl)pentanamide, reference compound] |  | expression of the apo-b gene mRNA [2]: did not suppress the expression of the apo-b gene mRNA |
